Results published in patent publication US6444850B1, “Fungicidial compounds having a fluorovinyloxphyenyl moiety and process for the preparation thereof” (priority 1997, dated 2002).

Key:
Puccinia recondita = test: Fungicidal activity against wheat leaf rust (WLR) disease; assay type: in vivo; settings: for C. V. (%), Fungicidal Activities against WLB at 10 ppm: Table 8 (Test Example 5); for C. V. (%) WLR: 50 ppm, control value, wheat leaf rust
Erysiphae graminis = test: Fungicidal activity against barley powdery mildew (BPM) disease; assay type: in vivo; settings: for C. V. (%), Fungicidal activities against TLB at 10 ppm: Table 9 (Test Example 6); for C. V. (%) BPM: 50 ppm, control value, barley powdery mildew
[1] = system: Pyricularia oryzae Carvara KA301; assay type: in vivo; settings: for C. V. (%) Fungicidal Activities against RCB at 10 ppm / C. V. (%) Fungicidal Activities against RCB at 10 ppm (TABLE 6): sprayed on Nakdong rice plant, control value from lesion area; for C. V. (%) RCB: 50 ppm, control value, rice blast
Rhizoctonia solani AG-1 = test: Fungicidal activity against rice sheath blight (RSB) disease; settings: 50 ppm, control value
Phytophthora infestans = assay type: in vivo; settings: 50 ppm; control value, tomato late blight
Botrytis cinerae = test: Fungicidal activity against cucumber gray mold rot (CGM) disease; assay type: in vivo; settings: 50 ppm, control value

| SMILES | C. V. (%), Fungicidal Activities against WLB at 10 ppm (Puccinia recondita) | C. V. (%) WLR (Puccinia recondita) | C. V. (%), Fungicidal activities against TLB at 10 ppm (Erysiphae graminis) | C. V. (%) BPM (Erysiphae graminis) | C. V. (%) Fungicidal Activities against RCB at 10 ppm [1] | C. V. (%) Fungicidal Activities against RCB at 10 ppm (TABLE 6) [1] | C. V. (%) RCB [1] | C. V. (%) RSB (Rhizoctonia solani AG-1) | C. V. (%) TLB (Phytophthora infestans) | C. V. (%) CGM (Botrytis cinerae) |
| --- | --- | --- | --- | --- | --- | --- | --- | --- | --- | --- |
| CNC(=O)/C(=N/OC)c1ccccc1COc1cccc(OC(F)=C(c2cc(C)cc(C)c2)C(F)(F)F)c1 [Compound 70] | 100% | 100% | 100% | 100% | 100% | 100% | 100% | 0% | 0% | 0% |
| COC(=O)C(=CSC)c1ccccc1COc1cccc(OC(F)=Cc2cc(C)cc(C)c2)c1 [Compound 20] |  | 83% |  | 93% |  |  | 73% | 35% | 46% | 0% |
| CNC(=O)C(=COC)c1ccccc1COc1cccc(OC(F)=C(c2cccc(F)c2)C(F)(F)F)c1 [Compound 93] |  | 73% |  | 0% |  |  | 0% | 5% | 0% | 0% |
| CCCCCCC(=C(F)Oc1cccc(OCc2ccccc2C(=COC)C(=O)OC)c1)C(F)(F)F [Compound 106] | 91% | 98% | 100% | 100% |  |  | 0% | 45% | 0% | 0% |
| CON=C(C(=O)OC)c1ccccc1COc1cccc(OC(F)=Cc2cc(C)cc(C)c2)c1 [Compound 19] |  | 100% |  | 98% |  |  | 100% | 90% | 33% | 0% |
| CNC(=O)C(=NOC)c1ccccc1COc1cccc(OC(F)=C(c2cccc(C)c2)C(F)(F)F)c1 [Compound 52] | 100% | 100% | 100% | 100% | 95% | 95% | 95% | 90% | 55% | 28% |
| COC=C(C(=O)OC)c1ccccc1COc1cccc(OC(F)=Cc2cccc(C)c2)c1 [Compound 6] | 91% | 98% | 100% | 100% | 96% | 96% | 100% | 65% | 86% | 41% |
| COC=C(C(=O)OC)c1ccccc1COc1cccc(OC(F)=Cc2ccc(C)c(C)c2)c1 [Compound 13] | 95% | 98% | 99% | 100% | 97% | 97% | 97% | 50% | 85% | 58% |
| CON=C(C(=O)OC)c1ccccc1COc1cccc(OC(F)=C(c2ccc(F)cc2)C(F)(F)F)c1 [Compound 98] | 96% | 100% | 98% | 100% |  |  | 33% | 65% | 25% | 0% |
| COC=C(C(=O)OC)c1ccccc1COc1cccc(OC(F)=C(c2cccc(OC)c2)C(F)(F)F)c1 [Compound 71] | 95% | 100% | 100% | 100% |  |  | 90% | 40% | 62% | 41% |
| CON=C(C(=O)OC)c1ccccc1COc1cccc(OC(F)=C(c2cc(Cl)cc(Cl)c2)C(F)(F)F)c1 [Compound 103] | 96% | 100% | 100% | 100% |  |  | 0% | 60% | 3% | 0% |
| COC=C(C(=O)OC)c1ccccc1COc1cccc(OC(F)=Cc2ccc(F)cc2)c1 [Compound 36] | 100% | 100% | 100% | 99% | 94% | 94% | 100% | 95% | 66% | 0% |
| CNC(=O)/C(=C/OC)c1ccccc1COc1cccc(OC(F)=C(c2ccc(C)c(C)c2)C(F)(F)F)c1 [Compound 64] |  | 0% |  | 0% |  |  | 16% | 0% | 22% | 0% |
| COC(=O)C(=CSC)c1ccccc1COc1cccc(OC(F)=C(c2ccc(C)cc2)C(F)(F)F)c1 [Compound 57] |  | 96% |  | 98% |  |  | 53% | 45% | 40% | 9% |
| CON=C(C(=O)OC)c1ccccc1COc1cccc(OC(F)=Cc2ccc(Cl)cc2)c1 [Compound 39] |  | 86% | 95% | 96% |  |  | 100% | 90% | 80% | 15% |
| CON=C(C(=O)OC)c1ccccc1COc1cccc(OC(F)=Cc2cccc(OC)c2)c1 [Compound 27] |  | 86% | 97% | 96% |  |  | 100% | 90% | 80% | 0% |
| CNC(=O)C(=NOC)c1ccccc1COc1cccc(OC(F)=C(c2cccc(F)c2)C(F)(F)F)c1 [Compound 95] | 100% | 100% | 100% | 100% | 100% | 100% | 100% | 72% | 0% | 0% |
| CNC(=O)C(=NOC)c1ccccc1COc1cccc(OC(F)=C(c2ccc(C)cc2)C(F)(F)F)c1 [Compound 56] | 100% | 100% | 100% | 100% | 92% | 92% | 97% | 65% | 48% | 0% |
| CON=C(C(=O)OC)c1ccccc1COc1cccc(OC(F)=C(c2ccc(C)cc2)C(F)(F)F)c1 [Compound 55] |  | 100% | 97% | 100% | 94% | 94% | 100% | 30% | 85% | 0% |
| CNC(=O)C(=COC)c1ccccc1COc1cccc(OC(F)=C(c2cccc(OC)c2)C(F)(F)F)c1 [Compound 72] |  | 0% |  | 0% |  |  | 0% | 33% | 33% | 0% |
| COC=C(C(=O)OC)c1ccccc1COc1cccc(OC(F)=Cc2cc(C)cc(C)c2)c1 [Compound 17] | 99% | 100% |  | 99% | 95% | 95% | 90% | 60% | 81% | 50% |
| COC=C(C(=O)OC)c1ccccc1COc1cccc(OC(F)=Cc2ccc(OC)cc2)c1 [Compound 29] | 99% | 100% | 90% | 99% | 92% | 92% | 93% | 90% | 56% | 28% |
| CON=C(C(=O)OC)c1ccccc1COc1cccc(OC(F)=Cc2cc(C)c(C)cc2C)c1 [Compound 23] | 91% | 93% | 91% | 100% |  |  | 88% | 90% | 10% | 20% |
| CNC(=O)C(=NOC)c1ccccc1COc1cccc(OC(F)=C(c2cc(Cl)cc(Cl)c2)C(F)(F)F)c1 [Compound 104] | 100% | 100% | 100% | 100% | 98% | 98% | 100% | 50% | 0% | 0% |
